Where no end group is shown, it is not given here.
Test system: GM-CSF
Assay: GM-CSF activity on bone marrow precursors (liquid culture, methylene blue dye absorbance of adherent granulocytes and macrophages)
Type: cell-based, murine
Conditions: at any of the test concentrations (Figure 2)
Description: To determine the effect of the desired inhibitory oligopeptide, the following assay, using murine bone marrow precursors, was developed. Of course, if using an oligopeptide derivable from a species other than murine, substitution of cells from that species into the assay procedure would be required.
The biological activity of GM-CSF was determined in a liquid culture system of murine bone marrow cells (see, e.g., I. Bursuker, et al., J. Reticuloendothelial Soc., 25, 533 (1979)). Bone marrow cells were collected from femurs and tibia of 10 to 12 week old CB6F1 (C57BLxBalb/c) male mice (Harlan-Sprague Dawley, Inc., Indianapolis, Indiana) by flushing dissected and clean bones with phosphate buffered saline ("PBS", GIBCO, Grand Island, New York). Viable cell count was determined using trypan blue. The cells then were plated (1 ml/well; 2 X 10^5 cells/ml) in 24-well tissue culture plates (Costar, Cambridge, MA). Granulocyte-macrophage colony stimulating factor ("GM-CSF"; 2 ng/ml; recombinantly produced and available from PeproTech, Inc., Rocky Hill, NJ) and the desired oligopeptide were added at the desired concentration to the wells. […] The dye absorbance was measured at 620 nm in a MCC/340 Titertech Multiscan plate reader (Eflab, Helsinki, Finland). The dye absorbance reading is proportional to the number of cells in the culture.

## YYQTYCPPTPETD [Oligopeptide P96-109, oligopeptide spanning a region of the murine GM-CSF molecule, 13 amino acids]
  effect on the biological activity of GM-CSF: did not affect

— patent publication EP0499162A2, “GM-CSF inhibiting oligopeptides” (Bristol-Myers Squibb Company, priority 1991, dated 1992)
